2 compounds from patent US11628169B2, “Therapeutic drug for motor complications in Parkinson's disease” (Sumitomo Pharma Co., Ltd., priority 2020, dated 2023) can be followed below.

Counter-ions that a name gives are not always drawn.

What all share (format): in vivo
Test [1] concerns PD-LID rat model. As to the kind of experiment: Dyskinesia-like symptom (AIMs) score in PD-LID rat model.
Test [2] relates to PD-LID rat model. The description is as above. As to conditions: for total dyskinesia-like symptom (AIMs) score in 3 hours: levodopa 5 min later, vs solvent group. How it is done:
To make a PD-LID rat model, a mixture of levodopa methyl ester hydrochloride (6 mg/kg; Sigma-Aldrich) dissolved in saline and benserazide hydrochloride (15 mg/kg; Sigma-Aldrich) (hereinafter, also referred to as “levodopa containing solution”) was intraperitoneally administered once daily to 6-OHDA-lesioned rats. The levodopa containing solution was repeatedly administered for 3 weeks or longer to observe and evaluate the behavior. The behavior was observed and evaluated in a transparent acrylic cage for 1 minute every 20 minutes after 20 minutes from the intraperitoneal administration of the levodopa containing solution, up until after 3 hours from administration. […] The sum of the scores for Limb AIMs, Axial AIMs, and Orolingual AIMs in 3 hours was used as the total dyskinesia-like symptom (AIMs) score. Individuals with a total AIMs score of less than 10 were excluded from the test as not manifesting a dyskinesia-like symptom. The behavior was observed and evaluated before the drug evaluation date. The rats were assigned to each dosing group by using the 3 hour total dyskinesia-like symptom (AIMs) score, Locomotive behavior score, and rat body weight as indicators, which were used for evaluation of drugs. […]
After 4 hours from application, a levodopa containing solution was intraperitoneally administered to observe and evaluate the behavior. Individuals with 50% or more of the tape agent coming off during the test were excluded from analysis. […]
As in Example 2, a levodopa containing solution was repeated administered to 6-0HDA-lesioned rats for 3 weeks or longer to observe and evaluate the behavior. The behavior was observed and evaluated before the drug evaluation date. The rats were assigned to each dosing group by using the 3 hour dyskinesia-like symptom (AIMs) score, Locomotive behavior score, and rat body weight as indicators, which were used for evaluation of drugs. However, individuals with a total AIMs score of less than 10 were excluded from the test as lacking manifestation of a dyskinesia-like symptom. Individuals with a body weight deviating 10% or more from the mean body weight were also excluded from the test to minimize variation in the dosage for each individual. […]
After 4 hours, a levodopa containing solution was administered to observe and evaluate the behavior. […]
The prepared solution was used after injection into an ALZET® Osmotic Pump MODEL 2ML2 (4.53 μL/hour; DURECT) for releasing a drug solution at a stable rate for 2 weeks. […]
The behavior was observed and evaluated using the same method as Example 2. […] After 5 minutes, a levodopa containing solution was intraperitoneally administered, and the behavior was observed and evaluated. The results in the drawings are indicated in terms of mean value […] standard error. The test results were statistically analyzed by comparison with the solvent administration group by Steel test using the total dyskinesia-like symptom (AIMs) score in 3 hours and total dyskinesia-like symptom score in 100 to 180 minutes as parameters. * indicates p<0.05, meaning that there is a significant difference.
The behavior was observed and evaluated using the same method in Example 2. […] The test results were statistically analyzed by comparison with the solvent administration group by Steel test by using the total dyskinesia-like symptom (AIMs) score in 3 hours and total dyskinesia-like symptom score in 100 to 180 minutes as parameters.

For test [3], the system named is PD-LID rat model. Description: ON score and ON time without dyskinesia in PD-LID rat model. How it is done:
To make a PD-LID rat model, a mixture of levodopa methyl ester hydrochloride (6 mg/kg; Sigma-Aldrich) dissolved in saline and benserazide hydrochloride (15 mg/kg; Sigma-Aldrich) (hereinafter, also referred to as “levodopa containing solution”) was intraperitoneally administered once daily to 6-OHDA-lesioned rats. The levodopa containing solution was repeatedly administered for 3 weeks or longer to observe and evaluate the behavior. The behavior was observed and evaluated in a transparent acrylic cage for 1 minute every 20 minutes after 20 minutes from the intraperitoneal administration of the levodopa containing solution, up until after 3 hours from administration. […] Individuals with a total AIMs score of less than 10 were excluded from the test as not manifesting a dyskinesia-like symptom. The behavior was observed and evaluated before the drug evaluation date. […] For an indicator of dyskinesia behavior, the sum of the Limb AIMs, Axial AIMs, and Orolingual AIMs at each evaluation point was used as the AIMs score. For the rotational behavior (ON score), Locomotive behavior at each evaluation point was used as an indicator. […] For ON time without dyskinesia, the period during which the AIMs score is 0 and Locomotive behavior is 1 or greater at each evaluation point was added. Duration of action of levodopa without a dyskinesia symptom (ON time without dyskinesia) refers to the aggregate time with no dyskinesia during the antiparkinsonian action effective time, i.e., “ON-time”, and defined as the time during which the dyskinesia symptom (AIMs) score is 0 and the rotational behavior (Locomotive behavior) score is 1 or greater at each evaluation point after levodopa administration. […] After 5 minutes, a levodopa containing solution was intraperitoneally administered, and the behavior was observed and evaluated. The results in the drawings are indicated in terms of mean value±standard error. […] For evaluation of a tape agent, the abdominal regions of the rats were shaved prior to the evaluation date. […] After 4 hours from application, a levodopa containing solution was intraperitoneally administered to observe and evaluation the behavior. The results in the drawings are indicated in terms of mean value±standard error. Individuals with 50% or more of the tape agent coming off during the test were excluded from analysis.

Test [4] deals with rat Vogel conflict test model. Description: Anxiolytic action in rat Vogel conflict test model. As to conditions: effect on PD-LID evaluated in 6-OHDA-lesioned rats. How it is done:
The anxiolytic action was evaluated using a rat Vogel conflict test model, and the effect on PD-LID was evaluated in 6-0HDA-lesioned rats.

Where [5] appears, read: continuous subcutaneous infusion 1.25 mg/kg/hour, vs solvent.
Setting [6] is: oral 6.7 mg/kg as free form (10 mg/kg as citrate).
The mark [7] stands for this setting: oral 67 mg/kg as free form (100 mg/kg as citrate).
Where [8] appears, read: transdermal condition 1, 37 mg/kg as free form.
The mark [9] stands for this setting: transdermal condition 2 (stripping), 45 mg/kg as free form.

As for `c1cnc(N2CCNCC2)nc1` [1-PP dihydrochloride, 1-(2-Pyrimidyl)piperazine], the “total dyskinesia-like symptom score in 100 to 180 minutes” value with PD-LID rat model [1] (subcutaneous 10 or 30 mg/kg, vs solvent group) is given as “increasing trend in the total AIMs score, albeit not significant”. Further, the “total dyskinesia-like symptom (AIMs) score in 3 hours” value with PD-LID rat model [2] (subcutaneous 10 mg/kg) and in the test with PD-LID rat model [2] (subcutaneous 30 mg/kg) was “significant change in the total AIMs score was not found” throughout.

For the compound `O=C1[C@@H]2[C@H]3CC[C@H](C3)[C@@H]2C(=O)N1CCCCN1CCN(c2ncccn2)CC1` [tandospirone, (1R,2S,3R,4S)—N-[4-{4-(pyrimidine-2-yl)piperadine-1-yl}butyl]-2,3-bicyclo[2.2.1]heptanedicarboximide], the “dyskinesia-like symptoms (total AIMs score in 3 hours)” value was “significant improvement” in the test with PD-LID rat model [1] (setting [5]) and “dose-dependently improved dyskinesia-like symptoms” in the test on PD-LID rat model [2] (continuous subcutaneous infusion 0.05, 0.25, 1.25 mg/kg/hour, levodopa 4 hours after pump implant, vs solvent). Moreover, the “(i) Degree of improvement in indicator of dyskinesia symptom (total AIMs score in 3 hours, solvent minus tandospirone group)” value in the test with PD-LID rat model [1] (setting [6]), in the test with PD-LID rat model [1] (oral 20 mg/kg as free form (30 mg/kg as citrate)) and in the test on PD-LID rat model [1] (setting [7]) was “Ineffective” in each case. Also, the “(ii) Indicator of rebound symptom of dyskinesia (total dyskinesia-like symptom score in 100 to 180 minutes, solvent minus tandospirone group)” value in the test on PD-LID rat model [1] (setting [6]) was “No effect”; in the test on PD-LID rat model [1] (oral 20 mg/kg as free form (30 mg/kg as citrate), experiment printed as (FIG. 7)) it was −9.1; with PD-LID rat model [1] (oral 20 mg/kg as free form (30 mg/kg as citrate), experiment printed as (FIGS. 8A-8B)), −8.5; with PD-LID rat model [1] (setting [7]), −10.1. Besides, the “(i) Degree of improvement in indicator of dyskinesia symptom (total AIMs score in 3 hours, placebo minus tandospirone group)” value in the test on PD-LID rat model [1] (setting [8]) was 17.7; with PD-LID rat model [1] (setting [9]), 27.1. In addition, the “(ii) Indicator of rebound symptom of dyskinesia (total dyskinesia-like symptom score in 100 to 180 minutes, placebo minus tandospirone group)” value in the test with PD-LID rat model [1] (setting [8]) and in the test on PD-LID rat model [1] (setting [9]) was “No effect” throughout. The “(iii) Duration of action of levodopa without dyskinesia symptom (ON time without dyskinesia)” value in the test on PD-LID rat model [3] (oral 6.7 mg/kg as free form (10 mg/kg as citrate), vs solvent group) was “Ineffective”; in the test with PD-LID rat model [3] (oral 20 mg/kg as free form (30 mg/kg as citrate), vs solvent group), “Ineffective”; with PD-LID rat model [3] (transdermal condition 1 (no stripping), 37 mg/kg as free form, 180 min, prolongation vs placebo tape), 21.7 min; with PD-LID rat model [3] (transdermal condition 2 (stripping), 45 mg/kg as free form, 180 min, prolongation vs placebo tape), 77.8 min. For the same compound, the “total dyskinesia-like symptom score in 100 to 180 minutes” value with PD-LID rat model [2] (setting [5]) is given as “significant improvement”. The “anxiolytic action compared with effect on PD-LID” value in test [4] is on record as “exerted at the same dosage”.
